The test system of one test is rat CRF2R α receptor. Put plainly: cAMP agonism at rat CRF2R α receptor in A7R5 rat aortic smooth muscle cells (Example 8). Format: cell-based. Particulars: cAMP HTRF, A7R5 rat aortic smooth muscle cell line, 0% HSA. The protocol:
Cells were grown in a T175 culture flask placed at 37° C. to near confluence in medium (DMEM/10% FBS) and collected in 2 ml vials in cell culture medium containing 10% DMSO in a concentration of 10-50 million cells/ml. Each vial contained 1.8 ml cells. The vials were slowly frozen to −80° C. in isopropanol and then transferred in liquid nitrogen for storage. Prior to use, frozen cells were thawed quickly at 37° C. and washed (5 min at 900 rpm) with 20 ml cell buffer (1×HBSS; 20 mM HEPES; 0% or 0.1% HSA). Cells were resuspended in assay buffer (cell buffer plus 2 mM IBMX) and adjusted to a cell density of 1 million cells/ml. For measurement, 5 μl cells (final […]) and 5 μL of test compound were added to a 384-well plate, followed by incubation for 30 minutes at room temperature.
The CAMP content of cells was determined using a kit from Cisbio Corp. (cat. no. 62AM4PEC) based on HTRF (Homogenous Time Resolved Fluorescence). After addition of HTRF reagents diluted in lysis buffer (kit components), the plates were incubated for 1 h, followed by measurement of the fluorescence ratio at 665/620 nm. The percent activity value (E %) was calculated by setting 1000 nM of urocortin 2 (UCN2) as 100%. The in vitro potency of the compounds was quantified by determining the concentrations that caused 50% activation of maximal response (EC50).
Using the procedure described in Example 7, the activity of the compounds at the rat CRF2R α receptor was assessed. The A7R5 rat aortic smooth muscle cell line was used in this study.

In the next test the target is T1, human CRF2α receptor (Homo sapiens, UniProt Q13324).
T1 construct: expressed in transfected cells; host or cells: TeloHEAC
T1 sequence (Q13324 1-411): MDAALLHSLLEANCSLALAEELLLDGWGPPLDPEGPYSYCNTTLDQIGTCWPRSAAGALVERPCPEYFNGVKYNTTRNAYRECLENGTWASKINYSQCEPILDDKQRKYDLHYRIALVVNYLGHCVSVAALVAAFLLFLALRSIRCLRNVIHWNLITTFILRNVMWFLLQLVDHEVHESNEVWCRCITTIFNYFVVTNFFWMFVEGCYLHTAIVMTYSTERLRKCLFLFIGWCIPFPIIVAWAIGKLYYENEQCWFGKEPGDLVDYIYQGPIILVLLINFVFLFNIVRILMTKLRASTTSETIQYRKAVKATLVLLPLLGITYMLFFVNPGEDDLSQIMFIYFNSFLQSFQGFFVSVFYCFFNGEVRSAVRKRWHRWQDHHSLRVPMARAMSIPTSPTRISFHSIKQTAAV
Put plainly: cAMP agonism at human CRF2 α receptor in TeloHEAC cells (Example 7). Particulars: cAMP HTRF, TeloHEAC cells stably expressing human CRF2 α. Format: cell-based. An outline of the steps:
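Steps: thaw and wash cells; suspend in 1×HBSS, 20 mM HEPES, 0 or 0.1% HSA, 2 mM IBMX; add compound, 30 min RT; lyse with HTRF reagents, 1 h; read 665/620 nm. EC50 calculated, E% versus 1000 nM UCN2.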

[1] abbreviates: 0% HSA, read-out: EC50 [nM], 0% HSA.
Setting [2] is: 0.1% HSA, read-out: EC50 [nM], 0.1% HSA.

The values that follow come from patent US12679878B2, “CRF2 receptor agonists and their use in therapy” (SANOFI, priority 2020, dated 2026).

Like-named read-outs stand apart in the source and are kept apart here. Starred links: 1 amine or outer side, 2 acyl side, 3 side chain; linkers in the order of their positions; H or OH if unused. Non-standard residues stand in square brackets, D forms with d. Residues, ends and D or L forms follow the SMILES beside them. Groups on a side chain read outwards from the residue. *: point of attachment. C18 diacid = O=C(O)CCCCCCCCCCCCCCCCC(=O)*; γGlu = O=C(O)[C@H](CCC(=O)[*:2])N[*:1]; AEEA = NCCOCCOCC(=O)O; Aib = CC(C)(N)C(=O)O

For `CC[C@H](C)[C@H](N)C(=O)N[C@H](C(=O)N[C@@H](CC(C)C)C(=O)N[C@@H](CO)C(=O)N[C@@H](CC(C)C)C(=O)N[C@@H](CC(=O)O)C(=O)N[C@@H](C(=O)N1CCC[C@H]1C(=O)N[C@H](C(=O)N[C@@H](CCCCN)C(=O)N[C@@H](CC(C)C)C(=O)N[C@@H](CCCCNC(=O)COCCOCCNC(=O)COCCOCCNC(=O)CC[C@H](NC(=O)CC[C@H](NC(=O)CCCCCCCCCCCCCCCCC(=O)O)C(=O)O)C(=O)O)C(=O)N[C@@H](CCC(N)=O)C(=O)N[C@H](C(=O)N[C@@H](CC(C)C)C(=O)N[C@@H](CC(C)C)C(=O)N[C@@H](CCCCN)C(=O)N[C@@H](CCC(N)=O)C(=O)N[C@@H](C)C(=O)N[C@@H](CCCNC(=N)N)C(=O)N[C@@H](CCC(N)=O)C(=O)N[C@@H](CCCCN)C(=O)NC(C)(C)C(=O)N[C@@H](CCC(N)=O)C(=O)N[C@@H](CCCNC(=N)N)C(=O)N[C@@H](C)C(=O)N[C@@H](CCC(N)=O)C(=O)N[C@@H](C)C(=O)N[C@@H](CCC(=O)O)C(=O)N[C@@H](CCCCN)C(=O)N[C@@H](CC(N)=O)C(=O)N[C@@H](CCCCN)C(=O)N[C@@H](CCCNC(=N)N)C(=O)N[C@H](C(=O)N[C@@H](CC(C)C)C(=O)N[C@@H](CCC(=O)O)C(=O)N[C@@H](CCCNC(=N)N)C(=O)N[C@H](C(N)=O)C(C)C)[C@@H](C)CC)[C@@H](C)CC)[C@@H](C)CC)C(C)C)C(C)C` [compound 174] (H-IVLSLD[dV]PIKLK([AEEA-AEEA-γGlu-γGlu-C18 diacid])QILLKQARQK[Aib]QRAQAEKNKRILERV-NH2; N-terminus assumed), the EC50 with rat CRF2R α receptor was 0.42 nM; at human CRF2α receptor (setting [1]) it was 0.07 nM; on human CRF2α receptor (setting [2]), 0.88 nM.
Consider `CC[C@H](C)[C@H](N)C(=O)N[C@H](C(=O)N[C@@H](CC(C)C)C(=O)N[C@@H](CO)C(=O)N[C@@H](CC(C)C)C(=O)N[C@@H](CC(=O)O)C(=O)N[C@@H](C(=O)N1CCC[C@H]1C(=O)N[C@H](C(=O)N[C@@H](CCCCN)C(=O)N[C@@H](CC(C)C)C(=O)N[C@@H](CCCCNC(=O)CCCCCCCCCCCCCCCCC(=O)O)C(=O)N[C@@H](CCC(N)=O)C(=O)N[C@H](C(=O)N[C@@H](CC(C)C)C(=O)N[C@@H](CC(C)C)C(=O)N[C@@H](CCCCN)C(=O)N[C@@H](CCC(N)=O)C(=O)N[C@@H](CCC(=O)O)C(=O)N[C@@H](CCCNC(=N)N)C(=O)N[C@@H](CCC(N)=O)C(=O)N[C@@H](CCCCN)C(=O)NC(C)(C)C(=O)N[C@@H](CCC(N)=O)C(=O)N[C@@H](CCCNC(=N)N)C(=O)N[C@@H](CCC(=O)O)C(=O)N[C@@H](CCC(N)=O)C(=O)N[C@@H](C)C(=O)N[C@@H](CCC(=O)O)C(=O)N[C@@H](CCCCN)C(=O)N[C@@H](CC(N)=O)C(=O)N[C@@H](CCCCN)C(=O)N[C@@H](CCC(N)=O)C(=O)N[C@H](C(=O)N[C@@H](CC(C)C)C(=O)N[C@@H](C)C(=O)N[C@@H](CCC(N)=O)C(=O)N[C@H](C(N)=O)C(C)C)[C@@H](C)CC)[C@@H](C)CC)[C@@H](C)CC)C(C)C)C(C)C` [compound 182] (H-IVLSLD[dV]PIKLK(C18 diacid)QILLKQERQK[Aib]QREQAEKNKQILAQV-NH2; N-terminus assumed), for which the EC50 worked out at 0.59 nM with rat CRF2R α receptor, 0.03 nM on human CRF2α receptor (setting [1]) and 3.13 nM on human CRF2α receptor (setting [2]).
With `CC[C@H](C)[C@H](N)C(=O)N[C@H](C(=O)N[C@@H](CC(C)C)C(=O)N[C@@H](CO)C(=O)N[C@@H](CC(C)C)C(=O)N[C@@H](CC(=O)O)C(=O)N[C@@H](C(=O)N1CCC[C@H]1C(=O)N[C@H](C(=O)N[C@@H](CCCCN)C(=O)N[C@@H](CC(C)C)C(=O)N[C@@H](CCCCNC(=O)CCCCCCCCCCCCCCCCC(=O)O)C(=O)N[C@@H](CCC(N)=O)C(=O)N[C@H](C(=O)N[C@@H](CC(C)C)C(=O)N[C@@H](CC(C)C)C(=O)N[C@@H](CCCCN)C(=O)N[C@@H](CCC(N)=O)C(=O)N[C@@H](C)C(=O)N[C@@H](CCCNC(=N)N)C(=O)N[C@@H](CCC(N)=O)C(=O)N[C@@H](CCCCN)C(=O)NC(C)(C)C(=O)N[C@@H](CCC(N)=O)C(=O)N[C@@H](CCCNC(=N)N)C(=O)N[C@@H](C)C(=O)N[C@@H](CCC(N)=O)C(=O)N[C@@H](C)C(=O)N[C@@H](CCC(=O)O)C(=O)N[C@@H](CCCCN)C(=O)N[C@@H](CC(N)=O)C(=O)N[C@@H](CCCCN)C(=O)N[C@@H](CCCNC(=N)N)C(=O)N[C@H](C(=O)N[C@@H](CC(C)C)C(=O)N[C@@H](CCC(=O)O)C(=O)N[C@@H](CCCNC(=N)N)C(=O)N[C@H](C(N)=O)C(C)C)[C@@H](C)CC)[C@@H](C)CC)[C@@H](C)CC)C(C)C)C(C)C` [compound 183] (H-IVLSLD[dV]PIKLK(C18 diacid)QILLKQARQK[Aib]QRAQAEKNKRILERV-NH2; N-terminus assumed), the values for the EC50 in the test with rat CRF2R α receptor, at human CRF2α receptor (setting [1]) and at human CRF2α receptor (setting [2]) were 1.12 nM, 0.12 nM and 1.58 nM, respectively.
On the same counts, the results for `CC[C@H](C)[C@H](N)C(=O)N[C@H](C(=O)N[C@@H](CC(C)C)C(=O)N[C@@H](CO)C(=O)N[C@@H](CC(C)C)C(=O)N[C@@H](CC(=O)O)C(=O)N[C@@H](C(=O)N1CCC[C@H]1C(=O)N[C@H](C(=O)N[C@@H](CCCCN)C(=O)N[C@@H](CC(C)C)C(=O)N[C@@H](CCCCNC(=O)CCCCCCCCCCCCCCCCC(=O)O)C(=O)N[C@@H](CCC(N)=O)C(=O)N[C@H](C(=O)N[C@@H](CC(C)C)C(=O)N[C@@H](CC(C)C)C(=O)N[C@@H](CCCCN)C(=O)N[C@@H](CCC(N)=O)C(=O)N[C@@H](CCC(=O)O)C(=O)N[C@@H](CCCNC(=N)N)C(=O)N[C@@H](CCC(N)=O)C(=O)N[C@@H](CCCCN)C(=O)N[C@@H](CCCCN)C(=O)N[C@@H](CCC(N)=O)C(=O)N[C@@H](CCCNC(=N)N)C(=O)N[C@@H](CCC(N)=O)C(=O)N[C@@H](CCC(N)=O)C(=O)N[C@@H](C)C(=O)N[C@@H](CCC(=O)O)C(=O)N[C@@H](CCCCN)C(=O)N[C@@H](CC(N)=O)C(=O)N[C@@H](CCCCN)C(=O)N[C@@H](CCC(N)=O)C(=O)N[C@H](C(=O)N[C@@H](CC(C)C)C(=O)N[C@@H](C)C(=O)N[C@@H](CCC(N)=O)C(=O)N[C@H](C(N)=O)C(C)C)[C@@H](C)CC)[C@@H](C)CC)[C@@H](C)CC)C(C)C)C(C)C` [compound 184] (H-IVLSLD[dV]PIKLK(C18 diacid)QILLKQERQKKQRQQAEKNKQILAQV-NH2; N-terminus assumed) are 0.42 nM, 0.05 nM and 2.83 nM.
